The results in this text go back to ChEMBL document CHEMBL1135059, “Structure-activity relationships of novel anti-malarial agents. Part 3: N-(4-acylamino-3-benzoylphenyl)-4-propoxycinnamic acid amides” (Bioorg Med Chem Lett, 2002).

For orientation: IC50 means the concentration at which inhibition is half-maximal.

For test [1], the system named is Plasmodium falciparum. Nature of the test: microbe, parasite or virus in culture.
Description: Antimalarial activity against Plasmodium falciparum Dd2 in erythrocytes
Test [2] concerns Plasmodium falciparum. In words: microbe, parasite or virus in culture. This is another data set of the same source.
Description: Antimalarial activity against Plasmodium falciparum 3D7 in erythrocytes

With `CCCCN(CCCC)CC(O)c1cc(Cl)cc2c1-c1ccc(Cl)cc1C2=Cc1ccc(Cl)cc1` (centres undefined) [LUMEFANTRINE], the IC50 in test [1] was 0.03 µM; in test [2], 0.029 µM.

With `CCCOc1ccc(/C=C/C(=O)Nc2ccc(NC(=O)Cc3ccc(Br)cc3)c(C(=O)c3ccccc3)c2)cc1`, the IC50 amounted to 0.31 µM in test [1] and 0.14 µM in test [2]. The corresponding values for `CCCOc1ccc(/C=C/C(=O)Nc2ccc(NC(=O)Cc3ccc(OC)cc3)c(C(=O)c3ccccc3)c2)cc1` are 1.3 µM and 1.2 µM. The corresponding values for `CCCOc1ccc(/C=C/C(=O)Nc2ccc(NC(=O)Cc3ccccc3C)c(C(=O)c3ccccc3)c2)cc1` are 2.4 µM and 1.4 µM. On to `CCCOc1ccc(/C=C/C(=O)Nc2ccc(NC(=O)/C=C/c3ccc(OCCC)cc3)c(C(=O)c3ccccc3)c2)cc1`, for which the IC50 in test [1] was determined as 23 µM; in test [2], 20 µM.

On to `CCCOc1ccc(/C=C/C(=O)Nc2ccc(NC(=O)Cc3ccccc3)c(C(=O)c3ccccc3)c2)cc1`, for which the figures for the IC50 in test [1] and in test [2] were 2.5 µM and 1.9 µM, respectively.

Molecule `CC1(C)N=C(N)N=C(N)N1c1ccc(Cl)cc1` [CYCLOGUANIL] showed an IC50 in test [2] of 0.0075 µM. That is a single-digit nanomolar value. Regarding `CCCOc1ccc(/C=C/C(=O)Nc2ccc(NC(=O)c3ccccc3)c(C(=O)c3ccccc3)c2)cc1`, the IC50 was 9 µM in test [1] and 6.5 µM in test [2]. Turning to `CCCOc1ccc(/C=C/C(=O)Nc2ccc(NC(=O)Cc3ccc(C)cc3)c(C(=O)c3ccccc3)c2)cc1`, the figures for the IC50 in test [1] and in test [2] were 0.34 µM and 0.25 µM, respectively. The matching figures for `CCCOc1ccc(/C=C/C(=O)Nc2ccc(NC(=O)Cc3ccc(-c4ccccc4)cc3)c(C(=O)c3ccccc3)c2)cc1`: 24 µM and 19 µM. In turn, `C=C[C@H]1CN2CC[C@H]1C[C@H]2[C@H](O)c1ccnc2ccc(OC)cc12` [QUININE] gave an IC50 in test [2] of 0.096 µM.

`CCc1nc(N)nc(N)c1-c1ccc(Cl)cc1` [PYRIMETHAMINE] came in with an IC50 in test [2] of 0.003 µM. This IC50 is about 32-fold lower than that of the molecule before.

With `CCCOc1ccc(/C=C/C(=O)Nc2ccc(NC(=O)c3cccc4ccccc34)c(C(=O)c3ccccc3)c2)cc1`, the results for the IC50 in test [1] and in test [2] were 3.4 µM and 2.7 µM, respectively. With `CCCOc1ccc(/C=C/C(=O)Nc2ccc(NC(=O)Cc3ccc(C(F)(F)F)cc3)c(C(=O)c3ccccc3)c2)cc1`, the IC50 came out at 0.12 µM in test [1] and 0.1 µM in test [2].

`CCCOc1ccc(/C=C/C(=O)Nc2ccc(NC(=O)Cc3ccc(Cl)cc3)c(C(=O)c3ccccc3)c2)cc1`: the IC50 in test [1] worked out at 0.35 µM; in test [2], 0.27 µM. The matching figures for `CCCOc1ccc(/C=C/C(=O)Nc2ccc(NC(=O)Cc3ccccc3Br)c(C(=O)c3ccccc3)c2)cc1`: 2.8 µM and 2 µM.
